Where two headings read alike, the source gives them in different places.
Assays:
[1] = system: KARN cells (Jurkat 2C4); experiment: cells; format: cell-based; settings: Homo sapiens, Jurkat
Protocol: KARN cells (Jurkat 2C4) were licensed from the laboratory of Dr. John Karn, Case Western Reserve University, School of Medicine. […] An atmosphere of 5% CO2 and 90% humidity was used for all culture work.
Day 1: After the 3-4 day growth period, the cells were transferred from the T175 flask to a 50 ml conical tube and gently pelleted at 1000 rpm for 5 minutes. […] These flasks were returned to the incubator.
Day 2: Cell Preparation: The next day, the cells were transferred from each T175 flask to an individual 50 ml conical tube and gently pelleted at 1000 rpm for 5 minutes. The cells were gently resuspended in assay media (30 ml) and pelleted again. […] The cells were counted using the ViCell (Beckman Coulter) and diluted as necessary. […] The plates were covered and returned to the incubator prior to compound addition.
The reference compounds, DMSO and SAHA were then added to the compound plate. […] The final high concentration for SAHA and the test compounds in the assays was 40 μM. The final DMSO concentration in all wells was 0.4%. The minimal induction reference compound used was DMSO and the maximal induction reference compound used was SAHA (2 μM final concentration in the assay).
Day 3: The luciferase detection reagent was prepared by transferring the contents of one bottle of Steady-Glo buffer to one bottle of Steady-Glo aubstrate (Steady-Glo Luciferase Assay System, Promega, catalog number E2520), followed by gently mixing until the substrate was thoroughly dissolved and the solution was equilibrated to room temperature. […] The Steady-Glo Reagent was added to the plates (30 μl/well), which were then covered with a black lid and incubated for 10 minutes at room temperature. The plates were then read for luminescence on an Envision (Perkin Elmer) using the ultrasensitive mode (US LUM), […] and 384-well aperture. Luminescence counts in the DMSO reference wells were considered as 0% induction, while those in the 2 μM SAHA reference wells were considered as 100% induction. Dose response curves were plotted as test compound concentration (X-axis) vs. percent activation (Y-axis) using a 4-parameter fit based on the Levenberg-Marquardt algorithm.

[2] = target: T1, Recombinant human HDAC8 (Homo sapiens, UniProt Q9BY41); experiment: Human HDAC enzyme inhibitor Fluor-de-Lys assay, HDAC8; format: biochemical
T1 construct: purchased Enzo Life Sciences BML-SE145-0100
T1 sequence (Q9BY41 1-377): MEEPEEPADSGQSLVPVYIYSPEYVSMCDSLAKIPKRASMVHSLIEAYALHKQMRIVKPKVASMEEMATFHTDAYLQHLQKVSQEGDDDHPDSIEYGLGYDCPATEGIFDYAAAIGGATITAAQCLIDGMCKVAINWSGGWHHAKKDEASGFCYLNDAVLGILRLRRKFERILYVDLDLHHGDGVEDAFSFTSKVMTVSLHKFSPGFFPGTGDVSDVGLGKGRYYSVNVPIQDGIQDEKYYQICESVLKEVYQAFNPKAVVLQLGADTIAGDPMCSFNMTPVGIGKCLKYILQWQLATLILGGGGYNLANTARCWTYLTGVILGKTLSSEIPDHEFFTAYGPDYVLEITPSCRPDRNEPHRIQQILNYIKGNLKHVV
Protocol: (§1) Human HDAC Enzyme Inhibitor Fluor-De-Lys Assay
(§2) Recombinant human HDAC8 (BML-SE145-0100) and HDAC10 (BML-SE559-0050) enzymes, HDAC substrates BML-KI104 and BML-KI178, and HDAC developer solutions BML-KI105 and BML-KI176 were purchased from Enzo Life Sciences. […] HDAC inhibitor suberoylanilide hydroxamic acid (SAHA) was obtained from Indofine and trichostatin A (TSA) was obtained from Sigma-Aldrich.
(§3) The histone deacetylase activities of HDAC1, HDAC2, HDAC3, HDAC6, and HDAC8 were measured in modified FLUOR DE LYS assays in 384-well format. In this assay, HDAC enzymes are initially incubated with an ε-acetyl (or -trifluoroacetyl)-L-lysine-containing substrate with a C-terminal amide having aminomethylcoumarin as the amine component. HDACs cleave the ε-acetyl group, rendering the resulting product susceptible to AMC cleavage by trypsin. The released AMC is then detected by its fluorescence.
(§4) The HDAC3/SMRT assay employed buffer B, consisting of 20 mM HEPES, pH 8.0, 1 mM MgCl2, 50 mM NaCl, 2.7 mM KCl, 0.05% BSA, 0.005% Tween 20, and 10 μM IP4. […] The HDAC8 assay employed buffer D, consisting of 20 mM HEPES, pH 8.0, 1 mM MgCl2, 100 mM NaCl, 20 mM KCl, 0.10% n-octyl-β-D-glucoside (Anatrace) and 0.05% BSA. All steps were performed at room temperature (23° C.). The assay was performed by pre-incubating serial dilutions of test compounds with the target HDAC prior to initiation with substrate. Each compound was titrated in a 10-point dose response, using a 1:3 fold dilution scheme, with 0.15 ul of solution added by ECH0555 to the plate, followed by the addition of 20 μl of the appropriate HDAC isoform diluted in appropriate assay buffer. […] Final conditions used for each assay were: 1. HDAC 1, 0.3 nM total enzyme, 20 μM substrate BML-KI104; 2. […] HDAC 3/SMRT, 0.3 nM total enzyme, 20 μM substrate BML-KI104; 4. […] The reactions were stopped and developed by addition of 30 ul of HDAC developer solution containing a saturating level of HDAC inhibitor as follows: 1.

[3] = target: T2, HDAC6 (Homo sapiens, UniProt Q9UBN7); experiment: Human HDAC enzyme inhibitor Fluor-de-Lys assay, HDAC6; format: biochemical
T2 sequence (Q9UBN7 1-1215): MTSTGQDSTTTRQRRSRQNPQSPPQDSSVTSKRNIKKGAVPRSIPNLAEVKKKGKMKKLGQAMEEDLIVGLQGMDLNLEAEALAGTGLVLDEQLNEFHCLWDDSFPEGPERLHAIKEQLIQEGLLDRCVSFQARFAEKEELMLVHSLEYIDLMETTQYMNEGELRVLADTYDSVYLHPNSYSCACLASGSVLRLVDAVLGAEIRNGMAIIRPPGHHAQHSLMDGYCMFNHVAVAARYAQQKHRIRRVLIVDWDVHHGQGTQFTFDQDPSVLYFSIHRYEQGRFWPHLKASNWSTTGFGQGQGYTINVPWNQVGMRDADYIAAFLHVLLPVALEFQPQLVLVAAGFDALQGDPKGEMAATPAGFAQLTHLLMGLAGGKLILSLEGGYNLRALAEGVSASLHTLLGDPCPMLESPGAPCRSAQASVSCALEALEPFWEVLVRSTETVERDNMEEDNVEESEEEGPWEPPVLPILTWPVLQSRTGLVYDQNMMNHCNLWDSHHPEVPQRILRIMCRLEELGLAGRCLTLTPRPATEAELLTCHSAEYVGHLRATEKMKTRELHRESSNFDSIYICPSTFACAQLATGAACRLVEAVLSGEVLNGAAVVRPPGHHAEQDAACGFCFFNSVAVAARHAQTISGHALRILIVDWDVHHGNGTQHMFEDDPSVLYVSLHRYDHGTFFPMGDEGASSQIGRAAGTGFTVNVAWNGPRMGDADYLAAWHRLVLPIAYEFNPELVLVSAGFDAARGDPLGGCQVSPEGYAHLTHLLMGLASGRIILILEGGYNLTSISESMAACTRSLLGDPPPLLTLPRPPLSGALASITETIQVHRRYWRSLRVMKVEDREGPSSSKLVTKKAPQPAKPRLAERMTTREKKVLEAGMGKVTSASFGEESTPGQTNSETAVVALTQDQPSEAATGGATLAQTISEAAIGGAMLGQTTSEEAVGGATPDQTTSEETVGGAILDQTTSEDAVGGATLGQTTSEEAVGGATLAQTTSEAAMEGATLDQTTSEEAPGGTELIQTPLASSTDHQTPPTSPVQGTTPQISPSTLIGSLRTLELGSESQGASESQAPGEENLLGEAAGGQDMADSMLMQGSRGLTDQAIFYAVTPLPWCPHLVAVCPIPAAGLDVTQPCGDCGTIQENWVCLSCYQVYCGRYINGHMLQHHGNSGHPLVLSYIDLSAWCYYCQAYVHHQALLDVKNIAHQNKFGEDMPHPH
Protocol: as §1, §2, §3, §4

[4] = read-out: Karn EC50 (nM) 0.1% NHS, 0.1% normal human serum
[5] = read-out: Karn EC50 (nM) 5% NHS, 5% normal human serum
[6] = read-out: Karn EC50 (nM) 0.1% NHS, 0.1% normal human serum, luciferase induction, 100% = 2 μM SAHA
[7] = read-out: Karn EC50 (nM) 5% NHS, 5% normal human serum, luciferase induction, 100% = 2 μM SAHA
[8] = recombinant human HDAC8, Fluor-de-Lys assay

| SMILES | EC50 [1, 4] | EC50 [1, 5] | IC50 [2] | IC50 [3] | EC50 [1, 6] | EC50 [1, 7] | IC50 [2, 8] | IC50 ([3]; HDAC6, Fluor-de-Lys assay) |
| --- | --- | --- | --- | --- | --- | --- | --- | --- |
| CCC(=O)CCCCC[C@H](NC(=O)[C@H]1CC12CCN(C)CC2)c1ncc(-c2cc3ccc(-c4ncco4)cc3nc2OC)[nH]1 [Compound 175, (1S)—N-[(1S)-1-{5-[2-methoxy-7-(1,3-oxazol-2-yl)quinolin-3-yl]-1H-imidazol-2-yl}-7-oxononyl]-6-methyl-6-azaspiro[2.5]octane-1-carboxamide] | 48 nM | 84 nM | > 150 nM | > 150 nM |  |  |  |  |
| CCC(=O)CCCCC[C@H](NC(=O)[C@H]1CC12CCN(C)CC2)c1ncc(-c2cc3ccc(-n4cccn4)cc3nc2OC)[nH]1 [Compound 176, (1S)—N-[(1S)-1-{5-[2-methoxy-7-(1H-pyrazol-1-yl)quinolin-3-yl]-1H-imidazol-2-yl}-7-oxononyl]-6-methyl-6-azaspiro[2.5]octane-1-carboxamide] | 45 nM | 76 nM | > 4500 nM | > 1500 nM |  |  |  |  |
| CCC(=O)CCCCC[C@H](NC(=O)[C@H]1CC12CCN(C)CC2)c1ncc(-c2cc3ccc(Cl)cc3nc2OC)[nH]1 [Compound 177] | 22 nM | 41 nM | 2560 nM | 341 nM |  |  |  |  |
| CCC(=O)CCCCC[C@H](NC(=O)[C@H]1CC12CCN(CC)CC2)c1ncc(-c2cc3cccnc3cc2OC)[nH]1 [Compound 181] | 52 nM | 63 nM | 5250 nM | 144 nM |  |  |  |  |
| CCC(=O)CCCCC[C@H](NC(=O)[C@H]1CC12CCN(CC)CC2)c1ncc(-c2ccc(OC)cc2OC)[nH]1 [Compound 183] | 58 nM | 93 nM | 10400 nM | 898 nM |  |  |  |  |
| CCC(=O)CCCCC[C@H](NC(=O)[C@H]1CC12CCN(CC)CC2)c1ncc(-c2cc3nn(C)cc3cc2OC)[nH]1 [Compound 190] | 967 nM | 1450 nM | 3110 nM | 562 nM |  |  |  |  |
| CCC(=O)CCCCC[C@H](NC(=O)[C@H]1CC12CCN(CC)CC2)c1ncc(-c2ccc(F)cc2OC)[nH]1 [Compound 197] | 369 nM | 538 nM | 7540 nM | 3380 nM |  |  |  |  |
| CCN1CCC2(CC1)C[C@@H]2C(=O)N[C@@H](CCCCCC(=O)CC1CC1)c1ncc(-c2cccnc2OC)[nH]1 [Compound 202] | 210 nM | 501 nM | 8780 nM | 34900 nM |  |  |  |  |
| CCC(=O)CCCCC[C@H](NC(=O)[C@H]1CC12CCN(CC)CC2)c1ncc(-c2ccc(C)cc2OC)[nH]1 [Compound 208] | 53 nM | 63 nM | 1450 nM | 756 nM |  |  |  |  |
| CCC(=O)CCCCC[C@H](NC(=O)[C@H]1CC12CCN(CC)CC2)c1ncc(-c2cc3ccn(CC)c(=O)c3cc2OC)[nH]1 [Compound 245] |  |  |  |  | 18 nM | 22 nM | 9010 nM | 694 nM |
| CCC(=O)CCCCC[C@H](NC(=O)C1CCC2(CC1)CN(CC)C2)c1ncc(-c2cc3ccccc3nc2OC)[nH]1 [Compound 271] |  |  |  |  | 154 nM | 634 nM | 1750 nM | 464 nM |
| CCC(=O)CCCCC[C@H](NC(=O)C1CC2(CCN(C)CC2)C1)c1ncc(-c2cc3ccccc3nc2OC)[nH]1 [Compound 277] |  |  |  |  | 140 nM | 708 nM | 1920 nM | 405 nM |
| CCC(=O)CCCCC[C@H](NC(=O)C1CC2(CCN(CC)CC2)C1)c1ncc(-c2cc3ccccc3nc2OC)[nH]1 [Compound 278] |  |  |  |  | 166 nM | 1000 nM | 980 nM | 479 nM |
| CCC(=O)CCCCC[C@H](NC(=O)C1CC2(C1)CN(CC)C2)c1ncc(-c2cc3ccccc3nc2OC)[nH]1 [Compound 279] |  |  |  |  | 160 nM | 860 nM | 5120 nM | 362 nM |
| CCC(=O)CCCCC[C@H](NC(=O)[C@@H]1CC12CCCN(C)C2)c1ncc(-c2cc3ccccc3nc2OC)[nH]1 (stereo partly shown) [Compound 285] |  |  |  |  | 257 nM | 1010 nM | 9190 nM | 260 nM |
| CCC(=O)CCCCC[C@H](NC(=O)[C@H]1CC12CCCN(C)C2)c1ncc(-c2cc3ccccc3nc2OC)[nH]1 (stereo partly shown) [Compound 286] |  |  |  |  | 116 nM | 406 nM | 3870 nM | 342 nM |

From US12590099B2, “Inhibitors of histone deacetylase useful for the treatment or prevention of HIV infection” (Merck Sharp & Dohme LLC, priority 2018, dated 2026)
